Bridge positions count the residues as written; N and C are the ends. Square brackets hold non-standard residues; d marks the D form. Peptide text beside a SMILES is read from it. * marks the point of attachment. ξ: configuration not given here. Ala(morpholin-4-yl) = N[C@@H](CN1CCOCC1)C(=O)O; Phe(4-CONH2) = NC(=O)c1ccc(C[C@H](N)C(=O)O)cc1; Bip = N[C@@H](Cc1ccc(-c2ccccc2)cc1)C(=O)O; NH(CH2)14COOH = O=C(O)CCCCCCCCCCCCCCN*; Phe(3-Me) = Cc1cccc(C[C@H](N)C(=O)O)c1; Val(3-OH) = CC(C)(O)[C@H](N)C(=O)O; hArg = N=C(N)NCCCC[C@H](N)C(=O)O; 4Pal = N[C@@H](Cc1ccncc1)C(=O)O; Cha = N[C@@H](CC1CCCCC1)C(=O)O; Cit = NC(=O)NCCC[C@H](N)C(=O)O; Thr(3ξ) = CC(O)[C@H](N)C(=O)O; Dap(Me) = CNC[C@H](N)C(=O)O; Carboxymethyl = O=C(O)C*; Orn = NCCC[C@H](N)C(=O)O; Aun = NCCCCCCCCCCC(=O)O; Dab = NCC[C@H](N)C(=O)O; Dap = NC[C@H](N)C(=O)O; AEEA = NCCOCCOCC(=O)O; Piv = CC(C)(C)C(=O)*

Data on nine compounds can be found in US20260022142A1, “MACROCYCLIC IMMUNOMODULATORS” (Bristol-Myers Squibb Company, priority 2022, published 2026).

The target of this assay is T1, PD-1/PD-L1 interaction (PE-labeled human PD-L1-Ig binding to Jurkat cell line over-expressing human PD-1) (Homo sapiens, UniProt Q15116).
T1 construct: expressed in transfected cells; host or cells: Jurkat
T1 sequence (Q15116 25-288): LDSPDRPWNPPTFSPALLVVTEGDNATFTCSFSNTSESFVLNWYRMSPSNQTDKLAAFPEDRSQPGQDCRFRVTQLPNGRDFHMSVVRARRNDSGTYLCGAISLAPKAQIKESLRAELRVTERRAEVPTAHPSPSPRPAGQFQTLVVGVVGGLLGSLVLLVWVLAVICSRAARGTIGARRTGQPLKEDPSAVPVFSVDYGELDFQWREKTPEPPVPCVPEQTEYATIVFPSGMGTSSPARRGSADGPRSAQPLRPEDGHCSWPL
The experiment in a line: Jurkat-PD-1 Cell Binding High-Content Screening Assay (CBA). Format: cell-based. To be noted: Jurkat cell line over-expressing human PD-1; PE-labeled PD-L1-Ig 20 nM final; read-out: Jurkat hPD1-PDL1 IC50. In a few lines: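 Read-out is high-content imaging of cell-bound phycoerythrin-tagged PD-L1-Ig on fixed, Hoechst-counterstained Jurkat cells that over-express human PD-1. Compound exposure lasts 2 h at 37° C before the labeled ligand (20 nM final) is added for a further hour.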
Usually IC50 stands for the concentration needed to halve the response being measured. For `CNC[C@@H]1NC(=O)CSC[C@@H](C(=O)N[C@@H](CCN)C(=O)NCCCCCCCCCCC(=O)O)NC(=O)[C@H](CO)NC(=O)[C@H](C(C)O)NC(=O)[C@H](CC2CCCCC2)NC(=O)[C@H](CCN)NC(=O)[C@@H](CC(C)C)NC(=O)[C@H](CCCN)NC(=O)[C@H](Cc2ccc(O)cc2)NC(=O)[C@H](Cc2ccc(-c3ccccc3)cc2)NC(=O)[C@H](CCCCNC(=O)C(C)(C)C)NC(=O)[C@H](Cc2cccc(C)c2)NC(=O)[C@H](CC(=O)O)NC(=O)[C@H](Cc2ccc(OCC(=O)O)cc2)NC1=O` (stereo partly drawn) [Compound 3596] ({CH2CO}-[Dap(Me)]Y(Carboxymethyl)D[Phe(3-Me)]K(Piv)[Bip]Y[Orn][dL][Dab][Cha][Thr(3ξ)]SC[Dab][Aun]-OH; thioether N-14), the IC50 is 162 nM. With `CC(=O)NCCCC[C@@H]1NC(=O)[C@H](Cc2ccc(-c3ccccc3)cc2)NC(=O)[C@H](Cc2ccc(O)cc2)NC(=O)[C@H](Cc2cccc(C)c2)NC(=O)[C@H](CC(=O)O)NC(=O)[C@H](Cc2ccc(OCC(=O)O)cc2)NC(=O)[C@H](CCN)NC(=O)CSC[C@@H](C(=O)N[C@@H](CCCN)C(=O)N[C@@H](CO)C(=O)NCCCCCCCCCCC(=O)O)NC(=O)[C@H](CCC(=O)O)NC(=O)[C@H](C(C)O)NC(=O)[C@H](CC2CCCCC2)NC(=O)[C@H](CCN)NC(=O)[C@@H](CC(C)C)NC(=O)[C@H](CCCN)NC1=O` (stereo partly drawn) [Compound 3638] ({CH2CO}-[Dab]Y(Carboxymethyl)D[Phe(3-Me)]Y[Bip]K(Ac)[Orn][dL][Dab][Cha][Thr(3ξ)]EC[Orn]S[Aun]-OH; thioether N-14), the IC50 worked out at 70.9 nM. As to `Cc1cccc(C[C@@H]2NC(=O)[C@H](CC(=O)O)NC(=O)[C@H](Cc3ccc(OCC(=O)O)cc3)NC(=O)[C@H](C)NC(=O)CSC[C@@H](C(=O)N[C@@H](CCN)C(=O)NCCOCCOCC(=O)NCCOCCOCC(=O)NCCOCCOCC(=O)NCCOCCOCC(=O)NCCCCCCCCCCCCCCC(=O)O)NC(=O)[C@H](Cc3cnc[nH]3)NC(=O)[C@H](C(C)(C)O)NC(=O)[C@H](CC3CCCCC3)NC(=O)[C@H](CCN)NC(=O)[C@@H](CC(C)C)NC(=O)[C@H](CCCN)NC(=O)[C@H](Cc3ccc(OCC(=O)O)cc3)NC(=O)[C@H](Cc3ccc(-c4ccccc4)cc3)NC(=O)[C@H](Cc3ccc(OCC(=O)O)cc3)NC2=O)c1` [Compound 3870] ({CH2CO}-AY(Carboxymethyl)D[Phe(3-Me)]Y(Carboxymethyl)[Bip]Y(Carboxymethyl)[Orn][dL][Dab][Cha][Val(3-OH)]HC[Dab][AEEA][AEEA][AEEA][AEEA]-{NH(CH2)14COOH}; thioether N-14), the IC50 was determined as 28 nM. Next, `Cc1cccc(C[C@@H]2NC(=O)[C@H](CC(=O)O)NC(=O)[C@H](Cc3ccc(OCC(=O)O)cc3)NC(=O)[C@H](CCCCNC(=N)N)NC(=O)CSC[C@@H](C(=O)N[C@@H](CCN)C(=O)NCCOCCOCC(=O)NCCCCCCCCCCC(=O)O)NC(=O)[C@H](CCCN)NC(=O)[C@H](C(C)C)NC(=O)[C@H](CC3CCCCC3)NC(=O)[C@H](CCN)NC(=O)[C@@H](CC(C)C)NC(=O)[C@H](CN)NC(=O)[C@H](C(C)C)NC(=O)[C@H](Cc3ccc(-c4ccccc4)cc3)NC(=O)[C@H](C(C)C)NC2=O)c1` [Compound 3244] ({CH2CO}-[hArg]Y(Carboxymethyl)D[Phe(3-Me)]V[Bip]V[Dap][dL][Dab][Cha]V[Orn]C[Dab][AEEA][Aun]-OH; thioether N-14): 10.9 nM; `Cc1cccc(C[C@@H]2NC(=O)[C@H](CC(=O)O)NC(=O)[C@H](Cc3ccncc3)NC(=O)[C@H](Cc3ccc(OCC(=O)O)cc3)NC(=O)CSC[C@@H](C(=O)N[C@@H](CCCCN)C(=O)NCCCCCCCCCCC(=O)O)NC(=O)[C@H]([C@@H](C)O)NC(=O)[C@H](C(C)C)NC(=O)[C@H](CC3CCCCC3)NC(=O)[C@H](CCN)NC(=O)[C@@H](CC(C)C)NC(=O)[C@H](CCCN)NC(=O)[C@H](C(C)C)NC(=O)[C@H](Cc3ccc(-c4ccccc4)cc3)NC(=O)[C@H](C(C)C)NC2=O)c1` [Compound 1166] ({CH2CO}-Y(Carboxymethyl)[4Pal]D[Phe(3-Me)]V[Bip]V[Orn][dL][Dab][Cha]VTCK[Aun]-OH; thioether N-14): 28 nM; `Cc1cccc(C[C@@H]2NC(=O)[C@H](CC(=O)O)NC(=O)[C@H](Cc3ccc(O)cc3)NC(=O)[C@H](Cc3ccncc3)NC(=O)CSC[C@@H](C(=O)N[C@@H](CCN)C(=O)NCCCCCCCCCCC(=O)O)NC(=O)[C@H]([C@@H](C)O)NC(=O)[C@H](C(C)C)NC(=O)[C@H](CC3CCCCC3)NC(=O)[C@H](CCN)NC(=O)[C@@H](CC(C)C)NC(=O)[C@H](CCCN)NC(=O)[C@H](Cc3ccc(O)cc3)NC(=O)[C@H](Cc3ccc(-c4ccccc4)cc3)NC(=O)[C@H](C(C)C)NC2=O)c1` [Compound 2745] ({CH2CO}-[4Pal]YD[Phe(3-Me)]V[Bip]Y[Orn][dL][Dab][Cha]VTC[Dab][Aun]-OH; thioether N-14): 262 nM. To `Cc1cccc(C[C@@H]2NC(=O)[C@H](CC(=O)O)NC(=O)[C@H](Cc3ccc(OCC(=O)O)cc3)NC(=O)[C@H](CN)NC(=O)CSC[C@@H](C(=O)N[C@@H](CN)C(=O)NCCCCCCCCCCC(=O)O)NC(=O)[C@H]([C@@H](C)O)NC(=O)[C@H](C(C)C)NC(=O)[C@H](CC3CCCCC3)NC(=O)[C@H](CCN)NC(=O)[C@@H](CC(C)C)NC(=O)[C@H](CCCN)NC(=O)[C@H](CCCNC(N)=O)NC(=O)[C@H](Cc3ccc(-c4ccccc4)cc3)NC(=O)[C@H](C(C)C)NC2=O)c1` [Compound 1065] ({CH2CO}-[Dap]Y(Carboxymethyl)D[Phe(3-Me)]V[Bip][Cit][Orn][dL][Dab][Cha]VTC[Dap][Aun]-OH; thioether N-14) belongs 13.5 nM; to `Cc1cccc(C[C@@H]2NC(=O)[C@H](CC(=O)O)NC(=O)[C@H](Cc3ccc(OCC(=O)O)cc3)NC(=O)[C@H](CN3CCOCC3)NC(=O)CSC[C@@H](C(=O)N[C@@H](CCN)C(=O)NCCCCCCCCCCC(=O)O)NC(=O)[C@H](CO)NC(=O)[C@H](C(C)(C)O)NC(=O)[C@H](CC3CCCCC3)NC(=O)[C@H](CCN)NC(=O)[C@@H](CC(C)C)NC(=O)[C@H](CCCN)NC(=O)[C@H](Cc3ccc(OCC(=O)O)cc3)NC(=O)[C@H](Cc3ccc(-c4ccccc4)cc3)NC(=O)[C@H](Cc3ccc(OCC(=O)O)cc3)NC2=O)c1` [Compound 2235] ({CH2CO}-[Ala(morpholin-4-yl)]Y(Carboxymethyl)D[Phe(3-Me)]Y(Carboxymethyl)[Bip]Y(Carboxymethyl)[Orn][dL][Dab][Cha][Val(3-OH)]SC[Dab][Aun]-OH; thioether N-14), 0.9 nM; to `Cc1cccc(C[C@@H]2NC(=O)[C@H](CC(=O)O)NC(=O)[C@H](Cc3ccc(OCC(=O)O)cc3)NC(=O)[C@H](CCN)NC(=O)CSC[C@@H](C(=O)N[C@@H](CCN)C(=O)NCCCCCCCCCCC(=O)O)NC(=O)[C@H](CO)NC(=O)[C@H](C(C)(C)O)NC(=O)[C@H](CC3CCCCC3)NC(=O)[C@H](CCN)NC(=O)[C@@H](CC(C)C)NC(=O)[C@H](CCCN)NC(=O)[C@H](Cc3ccc(O)cc3)NC(=O)[C@H](Cc3ccc(-c4ccccc4)cc3)NC(=O)[C@H](Cc3ccc(C(N)=O)cc3)NC2=O)c1` [Compound 3603] ({CH2CO}-[Dab]Y(Carboxymethyl)D[Phe(3-Me)][Phe(4-CONH2)][Bip]Y[Orn][dL][Dab][Cha][Val(3-OH)]SC[Dab][Aun]-OH; thioether N-14), 9.2 nM.
